{"source": "patent US20250177425A1", "about": "“SAIKOSAPONIN C AS COMPOSITION FOR TREATING OR PREVENTING AGE-RELATED VASCULAR DISEASES INCLUDING ARTERIOSCLEROSIS” (AGINGTARGET, INC., priority 2022, published 2025)", "type_in_all_cases": "cell-based, human", "key": {"[1]": {"tested_on": "CASMC", "experiment": "Wound healing and transwell migration assay, PDGF-BB-induced", "details": "5 μM and 20 μM pretreatment 2 hours, PDGF-BB 20 ng/ml 24 hours", "description": "(§1) Specifically, two types of vascular smooth muscle cells, namely, AoSMC (human aortic smooth muscle cells) and CASMC (human coronary artery smooth muscle cells), were pretreated with Saikosaponin C at concentrations of 5 μM and 20 μM for 2 hours, and then treated with PDGF-BB (20 ng/ml), a platelet-derived growth factor (PDGF), for 24 hours. Then, the proliferation and migration of vascular smooth muscle cells were observed. A wound healing assay was performed to observe the proliferation and migration of vascular smooth muscle cells, and a transwell migration assay was performed to observe the migration ability of vascular smooth muscle cells.\n(§2) FIGS. 10A and 10B show the results of evaluating the proliferation and migration of vascular smooth muscle cells (AoSMC, CASMC) through a scratch wound healing assay. FIGS. 10C and 10D show the results of analyzing the cell migration ability of the same cells using a Transwell migration chamber with a pore size of 8.0 μm."}, "[2]": {"tested_on": "AoSMC", "experiment": "Wound healing and transwell migration assay, PDGF-BB-induced", "details": "5 μM and 20 μM pretreatment 2 hours, PDGF-BB 20 ng/ml 24 hours", "description": "as §1, §2"}, "[3]": {"tested_on": "p21, p27, and p16 in HUVEC", "experiment": "Western blotting of G1 phase growth arrest-inducing proteins", "details": "5 μM and 20 μM pretreatment 2 hours, 33 mM high glucose 36 hours, dose-dependent", "description": "(§3) Similar to Experimental Example 1, a high-fat diet evaluation system at the cellular level was established.\n(§4) Specifically, two types of vascular endothelial cells, namely, HUVEC and HPAEC cells, were pretreated with Saikosaponin C at concentrations of 5 μM and 20 μM for 2 hours, then treated with high glucose (33 mM) for 48 hours, and then immobilized with cold 70% ethanol. The DNA of the immobilized vascular endothelial cells was stained with PI (propidium iodide, 50 μg/ml) solution and the cell cycle was analyzed using a flow cytometer. In addition, the expression of cell cycle regulatory proteins such as p21, p27, and p16 was analyzed after treatment with high glucose (33 mM) for 36 hours.\n(§5) Since cellular senescence is closely related to the arrest in the G1 phase of the cell cycle, the cell cycle was evaluated using flow cytometry (FIG. 4A and FIG. 4B). In addition, the expression of p21, p27, and p16 proteins, which are G1 phase growth arrest-inducing proteins, was measured through Western blotting (FIG. 4C, FIG. 4D)."}, "[4]": {"tested_on": "p21, p27, and p16 in HPAEC", "experiment": "Western blotting of G1 phase growth arrest-inducing proteins", "details": "5 μM and 20 μM pretreatment 2 hours, 33 mM high glucose 36 hours, dose-dependent", "description": "as §3, §4, §5"}, "[5]": {"tested_on": "HUVEC", "experiment": "Monocyte-endothelial cell adhesion caused by TNF-α (Calcein AM-labeled THP-1)", "details": "5 μM and 20 μM pretreatment 2 hours, TNF-α 20 ng/ml 8 hours, THP-1 monocytes", "description": "(§6) Specifically, two types of vascular endothelial cells, namely, HUVEC (human umbilical vein endothelial cells) and HCAEC (human coronary artery endothelial cells), were pretreated with Saikosaponin C at concentrations of 5 μM and 20 μM for 2 hours, and then treated with TNF-α (20 ng/ml) for 8 hours. Then, adhesion of monocyte-vascular endothelial cell and expression of cell adhesion molecules (ICAM-1, VCAM-1) of vascular endothelial cells were observed. […] The adhesion of monocyte-endothelial cells was evaluated by imaging analysis using a confocal microscope and fluorescence analysis using a microplate reader, and expression of adhesion proteins (ICAM-1 and VCAM-1) was evaluated by Western blotting.\n(§7) Calcein AM fluorescence was analyzed using a confocal microscope and a microplate reader, and the expression of cell adhesion proteins (ICAM-1, VCAM-1) were evaluated through Western blotting.\n(§8) FIGS. 9A and 9B show the results of analysis of monocyte-endothelial cell adhesion in two types of vascular endothelial cells (HUVEC, HCAEC) using a confocal microscope, and FIGS. 9C and 9D show the results of analysis of Calcein AM fluorescence (at an excitation wavelength of 488 nm, and at an emission wavelength of 517 nm) in the same experiment using a microplate reader. […]"}, "[6]": {"tested_on": "HCAEC", "experiment": "Monocyte-endothelial cell adhesion caused by TNF-α (Calcein AM-labeled THP-1)", "details": "5 μM and 20 μM pretreatment 2 hours, TNF-α 20 ng/ml 8 hours, THP-1 monocytes", "description": "as §6, §7, §8"}, "[7]": {"tested_on": "HPAEC", "experiment": "Fluorescence image analysis of high glucose-induced ROS generation", "details": "5 μM and 20 μM pretreatment 2 hours, 33 mM high glucose 24 hours, dose-dependent", "description": "as §3\n(§9) Specifically, two types of vascular endothelial cells, namely, HUVEC and HPAEC cells, were pretreated with Saikosaponin C at concentrations of 5 μM and 20 μM for 2 hours, and then treated with high glucose at a concentration of 33 mM for 24 hours. Then, hydrogen peroxide (H2O2) and superoxide anion (O2^⋅−) generated in the cytoplasm and mitochondria were measured using each fluorescent probe. In addition, samples treated with 100 μM hydrogen peroxide (a ROS-inducing agent) for 1 hour and then treated for an additional 23 hours after medium change were used as positive control groups.\n(§10) Different analytical reagents were used depending on the type of ROS and the intracellular location where they were generated. Specifically, cytosolic hydrogen peroxide, cytosolic superoxide anion, mitochondrial hydrogen peroxide, and mitochondrial superoxide anion were measured using H2DCFDA (2,7-dichlorodihydrofluorescein diacetate), DHE (dihydroethidium), DHR (dihydrorhodamine 123), and Mito-SOX reagents, respectively. The H2DCFDA (1 μM, 45 min staining), DHE (10 µM, 60 min staining), DHR (20 µM, 30 min staining), and Mito-SOX (5 μM, 10 min staining) were used as ROS-specific fluorescent probes for fluorescence image analysis."}, "[8]": {"tested_on": "HUVEC", "experiment": "Fluorescence image analysis of high glucose-induced ROS generation", "details": "5 μM and 20 μM pretreatment 2 hours, 33 mM high glucose 24 hours, dose-dependent", "description": "as §3, §9, §10"}, "[9]": {"tested_on": "HUVEC", "experiment": "Mechanism study: SA-β-gal staining with NOS and Sirt1 inhibitors", "details": "20 μM pretreatment 2 hours, 33 mM high glucose 72 hours", "description": "Similar to Experimental Example 1, a high-fat diet evaluation system at the cellular level was established. Specifically, […], which are vascular endothelial cells, were pretreated with Saikosaponin C at a concentration of 20 μM for 2 hours, and then treated with high glucose at a concentration of 33 mM for 72 hours (for SA-β-gal staining) or 36 hours (for the analysis of enzyme activity of NOS and Sirt1). Then, SA-β-gal staining, NOS enzyme activity, and Sirt1 enzyme activity were analyzed. To analyze whether or not NOS and Sirt1 protein are involved in the anti-vascular aging effect of Saikosaponin C and the relationship between NOS and Sirt1 protein, L-NG-nitro arginine methyl ester (L-NAME) (5 mM), an inhibitor of NOS, and EX-527 (10 μM), an inhibitor of Sirt1 protein, were used. […] The senescence of vascular endothelial cells was assessed through intracellular SA-β-gal staining (FIG. 8A). The activities of NOS (FIG. 8B) and Sirt1 protein (FIG. 8C) were measured using the NOS Activity Assay Kit and the Sirt1 Activity Assay Kit, respectively."}}, "data": [{"smiles": "CC1O[C@@H](O[C@@H]2C(CO[C@@H]3OC(CO)[C@@H](O)C(O)C3O)O[C@@H](O[C@H]3CC[C@]4(C)[C@H]5C=C[C@]67OC[C@@]8(CCC(C)(C)C[C@H]86)[C@@H](O)C[C@@]7(C)[C@]5(C)CC[C@H]4C3(C)C)C(O)C2O)C(O)C(O)[C@H]1O", "note": "(stereo partly drawn) [Saikosaponin C]", "values": [{"measurement": "PDGF-BB-increased proliferation and migration of vascular smooth muscle cells", "setting": "[1]", "value": "not inhibited"}, {"measurement": "PDGF-BB-increased proliferation and migration of vascular smooth muscle cells", "setting": "[2]", "value": "not inhibited"}, {"measurement": "high glucose-induced increase in the expression of p21, p27, and p16 proteins", "setting": "[3]", "value": "significantly abolished"}, {"measurement": "high glucose-induced increase in the expression of p21, p27, and p16 proteins", "setting": "[4]", "value": "significantly abolished"}, {"measurement": "monocyte-endothelial cell adhesion caused by TNF-α", "setting": "[5]", "value": "inhibited"}, {"measurement": "monocyte-endothelial cell adhesion caused by TNF-α", "setting": "[6]", "value": "inhibited"}, {"measurement": "high glucose-induced ROS generation (cytosolic and mitochondrial hydrogen peroxide and superoxide anion)", "setting": "[7]", "value": "significantly suppressed"}, {"measurement": "high glucose-induced ROS generation (cytosolic and mitochondrial hydrogen peroxide and superoxide anion)", "setting": "[8]", "value": "significantly suppressed"}, {"measurement": "high glucose-induced SA-β-gal positive HUVEC cells", "setting": "[9]", "value": "reduced"}]}]}
